Laboratory results as given in PMC13242511, “Disrupting Notch signalling by a small molecule inhibiting dihydroorotate dehydrogenase activity” (Scientific Reports, 2026).
“And” between values parts separate entries of the source, which are not always exact repeats. Equal entries are not always repeated. “Also recorded” adds a separate entry of the source. Where two headings read alike, the source gives them in different places.

How the values were obtained:
Notch signalling = experiment: Notch reporter assay (12xCSL firefly luciferase / renilla luciferase, HEK293T Notch1ΔE reporter cell line clone #A1-11); format: cell-based; parameters: AUC Notch: scale not given here; conditions: for Bottom (Emax): Emax indicated independent from assay constraints, in % (unit assumed); for AUC Notch: area under the 14-point dose-response curve; for activity: 1,25µM
Method in brief: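 Compounds at two-fold concentration in 10 µl medium were brought to one-fold by adding 10 µl holding 4000 Notch reporter cells (clone #A1-11) per well of a 384-well plate. After 24 h, Promega dual-GLO firefly and renilla luciferase were read on a SpectraMaxi3. Dose-response curves were fitted with a log(inhibitor) vs. response variable-slope model.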

γ-secretase complex = γ-secretase complex (Homo sapiens, UniProt P49768); experiment: APP-C99 counter assay (GSI reporter assay); format: cell-based; parameters: AUC APP: scale not given here; conditions: for AUC APP: area under the 14-point dose-response curve, replicates averaged; for remaining activity at 10 µM / remaining activity at 25 µM / remaining activity at […]: 24 h, APP-C99 counter assay, read-out: 3p-DR in % of DMSO counter; for remaining activity at […]: 1,25µM
Method in brief: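 γ-secretase activity reported via APP cleavage driving firefly luciferase, normalized to renilla. After 24 h transfection then 24 h compound exposure, signals were read (0.1 s integration). Triplicate dose–responses fitted by variable-slope four-parameter model for IC50; area under curve also derived.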

[1] = 14p APP assay DR, bottom constrained to Emax of positive control LY-411575
[2] = Homo sapiens, HEK-293T, 14p Notch assay DR, bottom constrained to Emax of positive control DAPT, read-out: approximated IC50
[3] = Homo sapiens, HEK-293T, 14p Notch assay DR, log10 value, bottom constrained to Emax of positive control DAPT, read-out: approximated LogIC50 (converted)
[4] = Homo sapiens, HEK-293T, 10 µM, primary screen, 24 h, unit from Fig. 2 legend, read-out: Primary screen at 10 µM (Notch reporter signal)
[5] = Homo sapiens, HEK-293T, 10 µM, three-dose confirmation screen, unit from Fig. 2 legend, read-out: Hit confirmation at 10 µM (Notch reporter signal)
[6] = Homo sapiens, HEK-293T, 10µM, 3-point DR confirmation screen, Notch reporter assay, read-out: inhibitor ratio in % of DMSO in 3 point DR
[7] = Homo sapiens, HEK-293T, 10 µM, sheet conf vs counter 10 µM, same values as 3-point DR confirmation screen, read-out: Confirmation screen
[8] = Homo sapiens, HEK-293T, 25µM, 3-point DR confirmation screen, Notch reporter assay, read-out: inhibitor ratio in % of DMSO in 3 point DR
[9] = Homo sapiens, HEK-293T, 25 µM, Notch reporter 3-point dose-confirmation assay, sheet "conf vs counter 25 µM", read-out: Confirmation screen
[10] = Homo sapiens, HEK-293T, 3-point DR confirmation screen, Notch reporter assay, read-out: inhibitor ratio in % of DMSO in 3 point DR
[11] = Homo sapiens, HEK-293T, 14-point dose-response, Fig. 4, read-out: approximated IC50, Notch reporter assay
[12] = 9p dose response, AUCs averaged when replicates available
[13] = 14p dose response, AUCs averaged when replicates available
[14] = overview in comparison to compound C, Supplemental Fig. 9

SMILES	Bottom (Emax) (Notch signalling; 14p Notch assay DR)	AUC Notch (Notch signalling; replicates averaged)	Hill-slope (γ-secretase complex; [1])	AUC APP (γ-secretase complex)	IC50 (Notch signalling; [2]) [µM]	IC50 (Notch signalling; [3]) [µM]	curve fit information (γ-secretase complex; [1])	further results
c1ccc(Nc2nc(-c3ccc(Oc4ccccc4)cc3)cn3ccnc23)cc1 [CBK066406]	88.8	367.0	0.00761	491.7	–	–	–	–
CCOc1ccccc1-c1ccccc1NC(=O)c1ccc2c(c1)ncn2C1CC1 [CBK285808]	26.5	300.0	0.0761	538.6	5.1	5.01	–	activity at 10 µM (Notch signalling; [4]): 35.1%; activity at 10 µM (Notch signalling; [5]): 64.7%; activity at 10 µM (Notch signalling; [6]): 64.7%; activity at 10 µM (Notch signalling; [7]): 64.7%; activity at 25 µM (Notch signalling; [8]): 45.7%; activity at 25 µM (Notch signalling; [9]): 45.7%; activity (Notch signalling; [10]): 102%; remaining activity at 10 µM (γ-secretase complex): 165%; remaining activity at 25 µM (γ-secretase complex): 197%; remaining activity at […] (γ-secretase complex): 113%
O=C(Nc1nnc(-c2ccc3c(c2)OCCO3)o1)c1cccc(F)c1 [CBK287402]	87.8	353.0	–	499.9	–	–	IC50 indeterminate	–
COc1cc(Nc2nc(-c3ccc(F)c(Cl)c3)cn3ccnc23)cc(OC)c1OC [CBK037275]	90.9	361.0	-0.9	479.3	–	–	–	–
CC(=O)Nc1cccc(-c2cn3ccnc3c(Nc3ccccc3)n2)c1 [CBK066160]	87.0	362.0	-4.6e-12	549.2	–	–	IC50 indeterminate	–
Cc1ccccc1C(=O)NC(=S)Nc1sc2c(c1C(N)=O)CCC2 [CBK262107]	90.8	379.0	0.0876	533.6	–	–	–	IC50 (Notch signalling; [11]): > 40 µM
COc1cc(Nc2cncc(-c3cccc(N)c3)n2)cc(OC)c1OC [CBK065120]	47.4	329.0	0.0798	545.0	23	25.1	–	–
CC(C)C(=O)Nc1sc2c(c1C(=O)NCc1cccnc1)CCC2 [CBK306144]	~ 92,84	357.0	-0.0106	480.2	–	–	–	approximated IC50, Notch reporter assay (Notch signalling; 14-point dose-response, Fig. 4): Indeterminate
Cc1[nH]c2cccc(C(=O)N3CCCCC3CCNC(=O)c3ccccc3)c2c1C (centres unmarked) [CBK285976]	–	532.0	-2.25e-11	774.2	3.5	3.16	IC50 indeterminate	IC50 (Notch signalling; Homo sapiens, HEK-293T, 14p Notch assay DR, averaged when replicate measurements were available, read-out: averaged IC50s): 3.2 µM; IC50 (Notch signalling; Homo sapiens, HEK-293T, 14p Notch assay DR, bottom constrained to Emax of positive control RO4929097, read-out: approximated IC50): 3 µM; IC50 (Notch signalling; Homo sapiens, HEK-293T, 14p Notch assay DR, log10 value, bottom constrained to Emax of positive control RO4929097, read-out: approximated LogIC50 (converted)): 3.16 µM; activity at 10 µM (Notch signalling; [4]): 37.7%; activity at 10 µM (Notch signalling; [5]): 54.9%; activity at 10 µM (Notch signalling; [6]): 54.9%; activity at 10 µM (Notch signalling; [7]): 54.9%; activity at 25 µM (Notch signalling; [8]): 38.3%; activity at 25 µM (Notch signalling; [9]): 38.3%; activity (Notch signalling; [10]): 100%; Hill-slope (γ-secretase complex; 14p APP assay DR, bottom constrained to Emax of positive control CB-103): 0.344; remaining activity at 10 µM (γ-secretase complex): 145%; remaining activity at 25 µM (γ-secretase complex): 135%; remaining activity at […] (γ-secretase complex): 126%
Cc1ccccc1CN1CCC2(CC1)OCCc1c2n(C)c2ccccc12 [CBK040366]	104.0	632.0	4.29e-13	658.0	–	–	IC50 indeterminate	approximated IC50, Notch reporter assay (Notch signalling; 14-point dose-response, Fig. 4): Indeterminate
Cc1cc(C)c2[nH]c(C(=O)N[C@H](c3ccccc3)c3ccnn3C)c(C)c2c1 [CBK315984]	96.7	607.0	-1.0	698.8	–	–	–	approximated IC50, Notch reporter assay (Notch signalling; 14-point dose-response, Fig. 4): Indeterminate
COc1cccc(-c2nnc(NC(=O)c3ccc4c(c3)OCCO4)o2)c1 [CBK287591]	88.3	363.0	-1.2	490.0	–	–	–	–
COc1ccc(C(=O)N2Cc3nc[nH]c3C[C@H]2c2nc(-c3ccc(OC)cc3)no2)cc1 [CBK288966]	57.5	299.0	-6.4	443.8	5.4	5.01	–	activity at 10 µM (Notch signalling; [4]): 57.1%; activity at 10 µM (Notch signalling; [5]): 58.5%; activity at 10 µM (Notch signalling; [6]): 58.5%; activity at 10 µM (Notch signalling; [7]): 58.5%; activity at 25 µM (Notch signalling; [8]): 61.1%; activity at 25 µM (Notch signalling; [9]): 61.1%; activity (Notch signalling; [10]): 83.6%; remaining activity at 10 µM (γ-secretase complex): 120%; remaining activity at 25 µM (γ-secretase complex): 78.7%; remaining activity at […] (γ-secretase complex): 112%
C[C@H](NC(=O)[C@@H](O)c1cc(F)cc(F)c1)C(=O)N[C@@H]1C(=O)N(C)c2ccccc2-c2ccccc21 [LY-411575, reference compound]	46.0 and 46.9	373.0	–	428.9	–	–	–	reporter signal in % of DMSO (Notch signalling; 10 µM, inhibitor controls, Supplemental Fig. 2A): 46%; AUC 9p Notch reporter assay (Notch signalling; [12]): 1.91E+02; IC50 (Notch signalling; 14-point, unit inferred, replicates averaged, read-out: approxiated IC50s 14p Notch reporter assay): 0.00088 µM; Hill-slope (Notch signalling; 14p Notch assay DR, Notch inhibitor controls, no bottom constraint named): -1.3; approximated LogIC50 [M] (Notch signalling; 14p Notch assay DR, log10 value, Notch inhibitor controls, no bottom constraint named): -9.0 M; Hill-Slope 14p Notch reporter assay (Notch signalling; 14p dose response): -1.3; IC50 (Notch signalling; 14p dose response, single replicates, read-out: approximated IC50s 14p Notch reporter assay): 0.00086 µM and 0.0009 µM; AUC 14p Notch reporter assay (Notch signalling; [13]): 3.73E+02; 14p Notch reporter assay averaged IC50s (log) (Notch signalling; 14p dose response, log10 of averaged IC50): -9.1; Notch assay (Notch signalling; [14]): highest potency; also recorded: highest activity; Hill-Slope 9p APP counter assay averaged (γ-secretase complex; 9p dose response): -1.0; AUC 9p APP-counter assay (γ-secretase complex; [12]): 1.95E+02; Bottom (Emax) (γ-secretase complex; 14p APP assay DR, Emax indicated independent from assay constraints): 44.6 and 46.0; AUC. 14p APP-counter assay (γ-secretase complex; [13]): 4.29E+02; APP assay (γ-secretase complex; [14]): highest potency
COc1cc(Nc2nc(-c3cccc(O)c3)cn3ccnc23)cc(OC)c1OC [CBK066361]	55.6	316.0	-3.83e-12	487.2	12	12.6	IC50 indeterminate	–
Cc1ccc2cc(C(=O)NC(C)c3cnn(C)c3C)[nH]c2c1 (centres unmarked) [CBK246728]	–	605.0	–	720.8	> 5	> 5	IC50 indeterminate	IC50 (Notch signalling; [11]): > 5 µM
